Columns and labels:
E. coli [1] = assay: MIC, broth microdilution assay in polypropylene microtiter trays; format: cell-based; details: average of three separate experiments
Outline: (§1)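 Serially titrated peptides incubated with bacteria; growth tracked as OD; lowest level without OD change over the given period reported as MIC.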

P. aeruginosa = assay: as above; format: cell-based; details: average of three separate experiments
Outline: as §1

S. aureus K147 = assay: as above; format: cell-based; details: average of three separate experiments
Outline: as §1

S. aureus = assay: as above; format: cell-based; details: average of three separate experiments
Outline: as §1

[2] = test system: mutant (Nal B, H744) of P. aeruginosa; assay: microbe, parasite or virus in culture; format: cell-based; details: for (B) MIC of Cipro when combined with peptide: ciprofloxacin with peptide at concentration (A); for (B) MIC of Cipro when combined with peptide / FIC index / (A) Peptide doses together with Cipro: Nal B, H744; for FIC index: peptide + ciprofloxacin; for MIC A MIC of Peptides: peptide alone, P. aeruginosa mutant Nal B, H744 (Table 5); for (A) Peptide doses together with Cipro: peptide concentration in combination with ciprofloxacin
Outline: (§2)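 Checkerboard titration in Mueller Hinton broth, peptide against carbenicillin or ciprofloxacin, inoculum 10 μl of 10^−4 dilution of overnight culture, 18-24 h at 37 °C. Combination MIC is the lowest concentration reducing growth >50%. FIC index = A/MIC A + B/MIC B, with ≤~0.5 synergy, 1.0 additivity, >1.0 antagonism.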

[3] = test system: β-lactamase derepressed mutant (H547) of P. aeruginosa; assay: microbe, parasite or virus in culture; format: cell-based; details: P. aeruginosa H547; for (B) MIC of Carb when combined with peptide: Carbenicillin with peptide at concentration (A); for MIC A MIC of Peptides: peptide alone; for (A) Peptide doses together with Carb: peptide concentration in combination with Carbenicillin
Outline: as §2

E. coli [4] = assay: Synergy study (checkerboard titration) with hen white lysozyme; format: cell-based; details: for Lowest [CP] showing synergy: cationic peptide concentration, combined with lysozyme; for Lowest [Lyso] showing synergy: lysozyme concentration, combined with the peptide
P. aeruginosa (H103) = assay: as above; format: cell-based; details: for Lowest [CP] showing synergy: cationic peptide concentration, combined with lysozyme; for Lowest [Lyso] showing synergy: lysozyme concentration, combined with the peptide
Salmonella typhi = assay: as above; format: cell-based; details: for Lowest [CP] showing synergy: cationic peptide concentration, combined with lysozyme; for Lowest [Lyso] showing synergy: lysozyme concentration, combined with the peptide
[5] = test system: Pseudomonas aeruginosa strain M2; assay: Protection of neutropenic CD-1 mice challenged with Pseudomonas aeruginosa; format: in vivo; design: Survival post bacterial challenge, surviving mice: reference not given here; details: for Survival (%) post bacterial challenge: PBS 8
Outline: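 Neutropenia induced by three i.p. cyclophosphamide doses ([…], alternate days); mice then infected i.p. with 200-300 organisms/mouse. Peptides (200 µg/mouse = 8 mg/kg) in buffered citrate given i.p. at 30 min (single) or 30 min and 16 hrs (double) post-challenge; PBS control; mean of 2 experiments.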

[6] = double dose (200 μg per mouse i.p. at 30 min and 16 hrs), 16 hr
[7] = single dose (200 μg per mouse i.p. at 30 min), 16 hr

`CC[C@H](C)[C@H](NC(=O)CNC(=O)[C@@H](NC(=O)[C@H](CCCCN)NC(=O)[C@H](CCCCN)NC(=O)[C@H](Cc1ccccc1)NC(=O)[C@H](CC(C)C)NC(=O)[C@H](CCCCN)NC(=O)[C@H](Cc1c[nH]c2ccccc12)NC(=O)[C@@H](N)CCCCN)[C@@H](C)CC)C(=O)NCC(=O)N[C@@H](C)C(=O)N[C@H](C(=O)N[C@@H](CC(C)C)C(=O)N[C@@H](CCCCN)C(=O)N[C@H](C(=O)N[C@@H](CC(C)C)C(=O)N[C@@H](CCCCN)C(=O)N[C@H](C(=O)N[C@@H](CC(C)C)C(=O)N[C@H](C(=O)N[C@H](C(=O)NCC(=O)N[C@@H](CC(C)C)C(=O)N1CCC[C@H]1C(=O)N[C@@H](C)C(=O)N[C@@H](CC(C)C)C(=O)N[C@@H](CCCCN)C(=O)N[C@@H](CC(C)C)C(=O)N[C@H](C(=O)N[C@@H](CC(C)C)C(=O)N[C@@H](CCCCN)C(=O)O)[C@@H](C)O)[C@@H](C)O)[C@@H](C)O)C(C)C)C(C)C)C(C)C` [CM4] was tested, and the “MIC E. coli” value (E. coli [1]) was 4 µg/mL, the “MIC P. aeruginosa” value (P. aeruginosa) was 4 µg/mL and the “MIC S. aureus K147” value (S. aureus K147) was 8 µg/mL. The “MIC S. aureus” value (S. aureus) was 8 µg/mL, the “(B) MIC of Cipro when combined with peptide” value [2] was “.125 µg/mL” and the FIC index [2] was “.75”. For the same molecule, the “MIC A MIC of Peptides” value [2] was 4 µg/mL, the “(A) Peptide doses together with Cipro” value [2] was 1 µg/mL and the “(B) MIC of Carb when combined with peptide” value [3] was 64 µg/mL. The “MIC A MIC of Peptides” value [3] was 4 µg/mL, the “(A) Peptide doses together with Carb” value [3] was 1 µg/mL and the “FIC for combination of cationic peptide and lysozyme” value (from here on “FIC for combination”) (E. coli [4]) was 0.07. The “Lowest [CP] showing synergy” value (E. coli [4]) was 1.3 µg/mL, the “Lowest [Lyso] showing synergy” value (E. coli [4]) was 7.8 µg/mL and the “FIC for combination” value (P. aeruginosa (H103)) was 0.75. For the same molecule, the “Lowest [CP] showing synergy” value (P. aeruginosa (H103)) was 2.6 µg/mL, the “Lowest [Lyso] showing synergy” value (P. aeruginosa (H103)) was 250 µg/mL and the “FIC for combination” value (Salmonella typhi) was 0.50. The “Lowest [CP] showing synergy” value (Salmonella typhi) was 2.61 µg/mL, the “Lowest [Lyso] showing synergy” value (Salmonella typhi) was 7.8 µg/mL and the “Survival post bacterial challenge, surviving mice” value (“Survival post bacterial challenge” below) [5, 6] was 14. For the same molecule, the “Survival post bacterial challenge” value ([5]; double dose, 24 hr) was 14, the “Survival post bacterial challenge” value ([5]; double dose, 41 hr) was 7 and the “Survival post bacterial challenge” value ([5]; double dose, 48 hr) was 2. The “Survival post bacterial challenge” value ([5]; double dose, 64 hr) was 2, the “Survival (%) post bacterial challenge” value ([5]; double dose, 64 hr) was 14% and the “Survival post bacterial challenge” value ([5]; double dose, 72 hr) was 2. The “Survival (%) post bacterial challenge” value ([5]; double dose, 72 hr) was 14%, the “Survival post bacterial challenge” value ([5]; double dose, 96 hr) was 2 and the “Survival (%) post bacterial challenge” value ([5]; double dose, 96 hr) was 14%. For the same molecule, the “Survival post bacterial challenge” value [5, 7] was 15, the “Survival post bacterial challenge” value ([5]; single dose, 24 hr) was 15 and the “Survival post bacterial challenge” value ([5]; single dose, 41 hr) was 9. The “Survival post bacterial challenge” value ([5]; single dose, 48 hr) was 3, the “Survival post bacterial challenge” value ([5]; single dose, 64 hr) was 1 and the “Survival (%) post bacterial challenge” value ([5]; single dose, 64 hr) was 6%. The “Survival post bacterial challenge” value ([5]; single dose, 72 hr) was 1, the “Survival (%) post bacterial challenge” value ([5]; single dose, 72 hr) was 6% and the “Survival post bacterial challenge” value ([5]; single dose, 96 hr) was 1. The “Survival (%) post bacterial challenge” value ([5]; single dose, 96 hr) was 16%.
For `CC[C@H](C)[C@H](NC(=O)CNC(=O)[C@@H](NC(=O)[C@H](CCCCN)NC(=O)[C@H](CCCCN)NC(=O)[C@@H](NC(=O)[C@H](Cc1ccccc1)NC(=O)[C@H](CCCCN)NC(=O)[C@H](CCCCN)NC(=O)[C@H](Cc1c[nH]c2ccccc12)NC(=O)[C@@H](N)CCCCN)[C@@H](C)CC)[C@@H](C)CC)C(=O)NCC(=O)N[C@@H](C)C(=O)N[C@H](C(=O)N[C@@H](CC(C)C)C(=O)N[C@@H](CCCCN)C(=O)N[C@H](C(=O)N[C@@H](CC(C)C)C(=O)N[C@H](C(=O)N[C@H](C(=O)NCC(=O)N[C@@H](CC(C)C)C(=O)N1CCC[C@H]1C(=O)N[C@@H](C)C(=O)N[C@@H](CC(C)C)C(=O)N[C@@H](CCCCN)C(=O)N[C@@H](CC(C)C)C(=O)N[C@H](C(=O)N[C@@H](CCCCN)C(=O)N[C@@H](CCCCN)C(=O)O)[C@@H](C)O)[C@@H](C)O)[C@@H](C)O)C(C)C)C(C)C` [CPα2], the “MIC E. coli” value (E. coli [1]) was 2 µg/mL, the “MIC P. aeruginosa” value (P. aeruginosa) was 6 µg/mL and the “MIC S. aureus K147” value (S. aureus K147) was 16 µg/mL. The “MIC S. aureus” value (S. aureus) was 16 µg/mL, the “(B) MIC of Cipro when combined with peptide” value [2] was “.125 µg/mL” and the FIC index [2] was “.75”. For the same molecule, the “MIC A MIC of Peptides” value [2] was 2 µg/mL, the “(A) Peptide doses together with Cipro” value [2] was 1 µg/mL and the “(B) MIC of Carb when combined with peptide” value [3] was 32 µg/mL. For the same molecule, the FIC index ([3]; peptide + Carbenicillin, about 0.5 or less synergy, 1.0 additivity, >1.0 antagonism) was 1.0, the “MIC A MIC of Peptides” value [3] was 2 µg/mL and the “(A) Peptide doses together with Carb” value [3] was 1 µg/mL. The “FIC for combination” value (E. coli [4]) was 0.31, the “Lowest [CP] showing synergy” value (E. coli [4]) was 0.65 µg/mL and the “Lowest [Lyso] showing synergy” value (E. coli [4]) was 7.8 µg/mL. The “FIC for combination” value (P. aeruginosa (H103)) was 0.56, the “Lowest [CP] showing synergy” value (P. aeruginosa (H103)) was 10.4 µg/mL and the “Lowest [Lyso] showing synergy” value (P. aeruginosa (H103)) was 62.5 µg/mL. The “FIC for combination” value (Salmonella typhi) was 0.63, the “Lowest [CP] showing synergy” value (Salmonella typhi) was 2.61 µg/mL and the “Lowest [Lyso] showing synergy” value (Salmonella typhi) was 125 µg/mL. For the same molecule, the “Survival post bacterial challenge” value [5, 6] was 13, the “Survival post bacterial challenge” value ([5]; double dose, 24 hr) was 13 and the “Survival post bacterial challenge” value ([5]; double dose, 41 hr) was 12. For the same molecule, the “Survival post bacterial challenge” value ([5]; double dose, 48 hr) was 9, the “Survival post bacterial challenge” value ([5]; double dose, 64 hr) was 6 and the “Survival (%) post bacterial challenge” value ([5]; double dose, 64 hr) was 46%. The “Survival post bacterial challenge” value ([5]; double dose, 72 hr) was 6, the “Survival (%) post bacterial challenge” value ([5]; double dose, 72 hr) was 46% and the “Survival post bacterial challenge” value ([5]; double dose, 96 hr) was 5. For the same molecule, the “Survival (%) post bacterial challenge” value ([5]; double dose, 96 hr) was 38%, the “Survival post bacterial challenge” value [5, 7] was 15 and the “Survival post bacterial challenge” value ([5]; single dose, 24 hr) was 15. The “Survival post bacterial challenge” value ([5]; single dose, 41 hr) was 13, the “Survival post bacterial challenge” value ([5]; single dose, 48 hr) was 13 and the “Survival post bacterial challenge” value ([5]; single dose, 64 hr) was 13. For the same molecule, the “Survival (%) post bacterial challenge” value ([5]; single dose, 64 hr) was 86%, the “Survival post bacterial challenge” value ([5]; single dose, 72 hr) was 12 and the “Survival (%) post bacterial challenge” value ([5]; single dose, 72 hr) was 80%. For the same molecule, the “Survival post bacterial challenge” value ([5]; single dose, 96 hr) was 12 and the “Survival (%) post bacterial challenge” value ([5]; single dose, 96 hr) was 80%.

Source: US6818407B2, “Anti-endotoxic antimicrobial cationic peptides and methods of use therfor” (priority 1998, dated 2004)
